Data taken from patent US6458398B1, “Cold water disinfection of foods” (Eco Pure Food Safety Systems, Inc., priority 1999, dated 2002).

Tests used:
[1] = system: Escherichia coli (ATCC number 25922); experiment: cold water washing of raw cabbage inoculated with E. coli suspension; conditions: 25 g raw cabbage, 10 minutes, 21° C., pH 7.5 (ozone only) or 8.5 (with FIT 0.6 g/L)
Escherichia coli = conditions: in 19 minutes, raw waste water; cited from earlier work
Candida tropicalis = conditions: in 0.30 minutes, ozone-demand free water; cited from earlier work
Naegleria gruberi = conditions: in 1.1 minutes, ozone-demand free phosphate buffer solution; cited from earlier work
Poliovirus type I = conditions: cited from earlier work
[2] = system: bacterial spores (Bacillus subtilis v. globigii); conditions: within 1.5-2 minutes, water purged with 3% ozone by weight; cited from earlier work
[3] = system: human immunodeficiency virus ("HIV"); conditions: non-toxic concentration of 4 μg ozone per ml of serum; cited from earlier work
[4] = relative to chlorine; cited from earlier work

O=[O+][O-] [ozone]
decrease in E. coli relative to the control [1]: 93%
ozone concentration giving a 99% reduction (Escherichia coli): 2.2 mg/L
ozone concentration giving a 99% reduction (Candida tropicalis): 0.02 mg/L
ozone concentration giving a 99% reduction (Naegleria gruberi): 1.2 mg/L
ozone concentration giving a 99% reduction (Poliovirus type I): 0.2 mg/L
log reduction of bacterial spores [2]: four
log reduction in the infectious titer [3]: six
rate of disinfection, times faster than chlorine [4]: more than 3,000 times
